{"source": "patent US12440471B2", "about": "“Compositions and methods for the treatment of bronchopulmonary dysplasia (BPD) and BPD-associated pulmonary hypertension” (AyuVis Research, Inc., priority 2021, dated 2025)", "key": {"[1]": {"experiment": "Oral PK of nanomilled formulations in adult SD rats", "type": "in vivo, rat", "settings": "oral formulation, 100 mg/kg", "procedure": "The test item, the stabilizer (HPC-SSL) and the surfactant (SDS) were accurately weighed and transferred in a 15-mL amber glass jar charged with 6 mL of yttrium-stabilized zirconia beads (0.8 mm). The suspension was brought to final weight with water in order to achieve the desired final concentration. The formulation was mixed using a vortex for at least 1 minute and then homogenized using a roller mill (Unitized Jar Mill, Model 755 RMV from U.S. Stoneware (purchased from Fisher Scientific Canada cat #08-381-1) at 50 rpm for 48 hours.\nFor the animal study, the suspensions prepared at 50 mg/mL were diluted to 10 mg/mL using a blank vehicle prepared using the same proportions of excipients as those indicated in Table I. By diluting the concentrated suspension of AVR-84 a clear solution was obtained whereas for AVR-48 the solution was a homogeneous cloudy solution.\nAnimals and dosing: The male SD rats (N=3) were obtained from Charles River. Each animal was weighed before the administration of the test item. […] At the specified time points, t=15′, 30′, 1 h, 2 h, 3 h, 4 h, 6 h, 8 h and 24 h (N=3), blood (100 μL) was collected via the saphenous vein using MINIVETTE® POCT K3-EDTA. The blood samples were centrifuged for 10 min at 965 g and 4° C. within 30 min of collection, to obtain plasma. Plasma samples were kept frozen at −80° C. The plasma samples were thawed on ice and kept on ice during the sample preparation. Thirty μL of plasma samples were mixed with 75 μL of precipitation solution (80% acetonitrile and 20% methanol containing IS) was added. Samples were mixed and centrifuged at 3500 rpm for 10 min at 4° C. Forty μL of the supernatant was transferred to a 96 well plate, and 80 μL of water+0.1% formic acid was added and analyzed using the in house developed HPLC method."}, "hPBMC [2]": {"system": "hPBMC", "experiment": "Macrophage populations in hPBMC by FACS", "type": "cell-based, human", "settings": "72 h", "procedure": "Briefly, hPBMC were plated in a 96 well plate and treated with AVR 48 for 72 hrs. The cells were washed and stained for CD32, CD14, CD16, HLADR, CD86, CD206 anti-human antibodies and were analyzed by FACS. Dead cells were excluded by live/dead staining (7AAD) during analysis. The % of intermediate macrophages of the parent cells are determined as the macrophages stained positive for both HLADR and CD206 surface markers. The bar graph representing percentage of intermediate macrophages (Mint) of the parent macrophage populations (CD14+CD16+) after treatment with AVR-48. n=2 technical replicates and the experiment is repeated 3 times. AVR-48 binds to both toll-like receptor 4 (TLR4) and CD163 receptor on monocytes. In hPBMC, AVR-48 treatment for 72 h increased the percentage of intermediate macrophages and decreased M1 macrophages."}, "[3]": {"system": "adult respiratory distress syndrome/acute lung injury (ARDS/ALI) mouse model", "settings": "cited from earlier work"}, "hPBMC [4]": {"system": "hPBMC", "experiment": "Secreted IL-10 and LPS induced TNF-α in hPBMC by ELISA", "type": "cell-based, human", "procedure": "FIG. 26 C, Pretreatment (24 h) of AVR-48 to hPBMC followed by 6h of treatment with LPS (25 ng/ml) decreased the secreted TNF-α production in hPBMC cell supernatants. N=3.**p<0.01, ***p<0.001. One-way ANOVA."}, "TLR4": {"target": "T1, TLR4 (Homo sapiens, UniProt O00206)", "T1 construct": "Cell lysates were prepared, total protein was quantified and treated with different concentrations; host or cells: THP-1 cells stimulated with PMA for 48 h, then lysed", "T1 sequence (O00206 24-839)": "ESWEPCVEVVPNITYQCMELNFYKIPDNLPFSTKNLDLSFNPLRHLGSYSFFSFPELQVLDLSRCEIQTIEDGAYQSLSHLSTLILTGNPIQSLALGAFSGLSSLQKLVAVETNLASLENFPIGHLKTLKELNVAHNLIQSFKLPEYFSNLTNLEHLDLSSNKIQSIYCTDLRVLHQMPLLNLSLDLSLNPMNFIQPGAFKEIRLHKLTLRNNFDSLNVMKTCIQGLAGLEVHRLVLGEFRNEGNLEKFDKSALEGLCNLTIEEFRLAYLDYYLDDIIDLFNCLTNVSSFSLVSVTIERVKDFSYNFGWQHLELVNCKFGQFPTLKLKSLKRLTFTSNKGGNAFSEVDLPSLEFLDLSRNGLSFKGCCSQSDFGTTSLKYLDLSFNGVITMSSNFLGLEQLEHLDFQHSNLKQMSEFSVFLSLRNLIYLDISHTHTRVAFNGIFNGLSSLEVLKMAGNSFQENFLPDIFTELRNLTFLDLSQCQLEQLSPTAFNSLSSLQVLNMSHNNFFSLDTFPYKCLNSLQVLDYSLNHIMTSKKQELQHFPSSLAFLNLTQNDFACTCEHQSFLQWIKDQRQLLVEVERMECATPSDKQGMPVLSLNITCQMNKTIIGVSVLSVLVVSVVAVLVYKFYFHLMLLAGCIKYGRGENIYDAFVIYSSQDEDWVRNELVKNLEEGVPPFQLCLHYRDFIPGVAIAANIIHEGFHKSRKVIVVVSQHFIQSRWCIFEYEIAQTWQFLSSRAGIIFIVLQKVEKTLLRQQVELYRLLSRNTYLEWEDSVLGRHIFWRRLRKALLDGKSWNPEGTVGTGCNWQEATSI", "experiment": "TLR4 assay: unbound TLR4 ELISA in PMA-stimulated THP-1 cell lysates", "type": "binding", "settings": "THP-1 human monocyte cells", "procedure": "FIG. 26A, TLR4 assay: 1×10^5 THP cells (ATCC) were seeded in 24 well plates and stimulated with phorbol myristyl actetate (PMA, 200 ng/mL) for 48 h. Cell lysates were prepared, total protein was quantified and treated with different concentrations (4, 16, 62.5 and 250 μM) of the AVR-48 for 2 h. ELISA was performed after to assess unbound TLR4 following manufacturer's instruction (Raybiotech). TLR4 IC50 of the AVR-48 was calculated using GraphPad Prism7.04."}, "[5]": {"system": "hyperoxia-exposed BPD mouse model", "experiment": "BPD mouse model: flow cytometry of lung immune cell populations", "type": "in vivo", "procedure": "AVR-48 normalizes two important innate immune cell populations in animals with BPD. Based on the affinity of AVR-48 for TLR4 and the increased TLR4 expression in AVR-48 treated BPD animals, the inventors determined if there would be an impact on immune cell recruitment to the lung interstitium. Flow cytometry was performed to determine absolute numbers of key immune cell populations in the lung of neonatal mice pups from AVIS-48-treated and untreated animals in the RA and BPD groups. […] All other cell populations were similar (FIG. 11)."}, "[6]": {"system": "hyperoxia-exposed BPD mouse model", "experiment": "BPD mouse model: bronchoalveolar lavage fluid (BALF) analysis", "type": "in vivo", "settings": "vs BPD group", "source_text": "For the hyperoxia experiment, newborn pups were exposed to 100% hyperoxia (P0), along with their mothers, in cages in an airtight Plexiglas chamber (OxyCycler; Biospherix, Redfield, NY, USA) as described previously by the present inventors (Syed, Das et al., 2017, Leary, Das et al. 2019, Das, Acharya et al. 2020, relevant portions incorporated herein) for 4 consecutive days (till P4) and removed to RA on P5 to be recovered till P14, so as to emulate the human BPD condition. All pups were sacrificed on P14 for further experimental analyses. The pups without any hyperoxia exposure served as the corresponding RA (normoxia) controls.\nBronchoalveolar lavage fluid (BALF) Analysis. Pups were sacrificed on PN14, and the trachea was cannulated with a small-caliber needle by instilling PBS endotracheally at […] pressure for 15 minutes. Two volumes of 300 μL of cold 1×PBS were instilled, gently aspirated, and pooled. Samples were centrifuged at 1000×g for 10 minutes at 4° C. The supernatant was collected, and total protein was quantified using the Pierce™ BCA Protein Assay Kit (Fisher Scientific Co, Houston, TX). The total cell count was done using the TC20 cell counter (BioRad, Hercules, CA). Similar method was followed for analyzing the protein concentration in BAL fluid collected from preterm lambs."}, "[7]": {"settings": "AVR-48-treated RA animals vs RA animals"}, "[8]": {"settings": "treated vs untreated BPD animals, similar to RA control"}}, "data": [{"smiles": "CC(=O)N[C@@H]1C(Oc2ccc([N+](=O)[O-])cc2)OC(CO)C(O)C1O", "note": "(stereo partly shown) [AVR-48]", "values": [{"measurement": "Cmax", "setting": "[1]; male, SD (Sprague-Dawley), rat, plasma, adult rats n=3 (repeat of figure legend), read-out: Cmax", "result": "3.64 ± 0.66", "unit": "µM"}, {"measurement": "Tmax", "setting": "[1]; male, SD (Sprague-Dawley), rat, plasma, adult rats n=3, read-out: Tmax", "result": "42 ± 18", "unit": "min"}, {"measurement": "half-life", "setting": "[1]; male, SD (Sprague-Dawley), rat, plasma, adult rats n=3, read-out: half-life (T v2) (converted)", "result": "36 ± 24", "unit": "min"}, {"measurement": "plasma concentration profile", "setting": "[1]", "result": "linear decline in drug concentration"}, {"measurement": "M1 macrophages", "setting": "hPBMC [2]", "result": "decreased"}, {"measurement": "percentage of intermediate macrophages", "setting": "hPBMC [2]", "result": "increased"}, {"measurement": "efficacy dose", "setting": "[3]; IV, Shah, Das et al. 2021", "result": 10, "unit": "mg/kg/dose"}, {"measurement": "severe lung inflammation", "setting": "[3]; LPS-, hyperoxia- and CLP-induced ARDS in adult mice", "result": "decreases severe lung inflammation"}, {"measurement": "secreted TNF-α production", "setting": "hPBMC [4]; 24 h pretreatment followed by 6 h LPS (25 ng/ml)", "result": "decreased"}, {"measurement": "secreted IL-10 levels", "setting": "hPBMC [4]; hPBMC supernatant, 24 h post treatment", "result": "dose dependently increased"}, {"measurement": "binding to TLR4", "setting": "TLR4", "result": "binds to TLR4"}, {"measurement": "binding to TLR4", "setting": "TLR4; listed as 8", "result": "bind TLR4"}, {"measurement": "all other immune cell populations in the lung", "setting": "[5]; [7]", "result": "similar"}, {"measurement": "dendritic cells in the lung", "setting": "[5]; [7]", "result": "increase"}, {"measurement": "macrophages in the lung", "setting": "[5]; [7]", "result": "slight, but statistically significant, decrease"}, {"measurement": "macrophages in the lung", "setting": "[5]; [8]", "result": "increased"}, {"measurement": "neutrophils in the lung", "setting": "[5]; [8]", "result": "decreased"}, {"measurement": "total protein content in BALF", "setting": "[6]; 10 mg/kg IP", "result": "decreased"}, {"measurement": "total inflammatory cells in BALF", "setting": "[6]; 10 mg/kg", "result": "significantly decreased"}]}]}
